Measured values: patent publication US12116358B2, “Substituted indoles and methods of use thereof” (EPIZYME, INC., priority 2018, dated 2024)
Where two headings read alike, the source gives them in different places.

Key:
[1] = tested on: H3K36me3 in A549 cells; experiment: In-Cell Western (ICW) assay of SETD2 inhibitors (A549 assay); type: cell-based, human; conditions: A549 cells, read-out: SETD2 A549
In short: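 H3K36me3 In-Cell Western: cells exposed to compound for 3 days at 4,000 cells/well, 37° C. DRAQ5 (1:1000) marked cell number, with 700/800-channel Licor read-out.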

[2] = biological target: T1, SETD2(1434-1711) (Homo sapiens, UniProt Q9BYW2); experiment: SETD2 (1434-1711) assay; type: biochemical; conditions: read-out: SETD2 (1434-1711)
T1 construct: SETD2 (1434-1711) Assay; catalogue N/A
T1 sequence (Q9BYW2 1434-1711): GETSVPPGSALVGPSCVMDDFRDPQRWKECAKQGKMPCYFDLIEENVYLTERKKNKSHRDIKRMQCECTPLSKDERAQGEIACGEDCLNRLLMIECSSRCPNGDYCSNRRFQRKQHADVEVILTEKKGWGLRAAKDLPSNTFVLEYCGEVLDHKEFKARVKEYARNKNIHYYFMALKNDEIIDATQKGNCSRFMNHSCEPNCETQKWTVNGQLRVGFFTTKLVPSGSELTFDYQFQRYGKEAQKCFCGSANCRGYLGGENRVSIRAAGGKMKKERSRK

Row | SMILES | IC50 ([1]; Homo sapiens) | IC50 [2] | IC50 [1]
1 | Cc1ccc(F)c2cc(C(=O)Nc3cccc(NC(=O)C4CCCN4)c3)[nH]c12 (stereo not shown) [compound 314] | 1300 nM | 40 nM | –
2 | CCCNC1CCN(c2cccc(NC(=O)c3cc4c(F)ccc(C)c4[nH]3)c2)CC1 [compound 225] | – | 30 nM | 500 nM
3 | Cc1ccc(F)c2cc(C(=O)N[C@H]3CCC[C@H](N4CCCOCC4)C3)[nH]c12 [compound 362] | > 2000 nM | 1400 nM | –
4 | CN/C(=C\[N+](=O)[O-])N1CCN([C@H]2CCC[C@@H](NC(=O)c3cc4c(F)ccc(C)c4[nH]3)C2)CC1 [compound 1115] | 200 nM | 30 nM | –
5 | COCC(=O)N1CCN(c2cccc(NC(=O)c3cc4c(F)ccc(C)c4[nH]3)c2)CC1 [compound 44] | 100 nM | 40 nM | –
6 | Cc1ccc(F)c2cc(C(=O)Nc3cccc(-c4ccncc4)c3)[nH]c12 [compound 116] | 200 nM | 40 nM | –
7 | Cc1ccc(F)c2cc(C(=O)NC3CCCC(N4CCN(C(=O)C(C)C)C(C(F)(F)F)C4)C3)[nH]c12 (stereo not shown) [compound 1171] | – | 30 nM | 60 nM
8 | Cc1ccc(F)c2cc(C(=O)NC3CCCC(N4CCN5C(=O)COCC5C4)C3)[nH]c12 (stereo not shown) [compound 1139] | – | 500 nM | 1700 nM
9 | Cc1ccc(F)c2cc(C(=O)Nc3cccc(-c4ccc5cncn5c4)c3)[nH]c12 [compound 278] | – | 70 nM | 900 nM
10 | Cc1ccc(F)c2cc(C(=O)Nc3cccc4c(N5CCN(C)CC5)[nH]nc34)[nH]c12 [compound 391] | 2000 nM | 200 nM | –
11 | CC(=O)N1CCN([C@@H]2CCC[C@@H](NC(=O)c3cc4c(F)ccc(C)c4[nH]3)C2)C[C@H]1C [compound 931] | > 2000 nM | 1100 nM | –
12 | CC(=O)N1CCC2C1CCN2c1cc(F)cc(NC(=O)c2cc3c(F)ccc(C)c3[nH]2)c1 (stereo not shown) [compound 13] | – | 10 nM | 50 nM
13 | CC(=O)N1CCN([C@@H]2CCC[C@@H](NC(=O)c3cc4c(F)ccc(C)c4[nH]3)C2)C[C@H]1C(F)(F)F [compound 1072] | > 2000 nM | 2300 nM | –
14 | CCN(C1CCN(C2CCCC(NC(=O)c3cc4c(F)ccc(C)c4[nH]3)C2)C1)S(C)(=O)=O (stereo not shown) [compound 1131] | – | 6 nM | 40 nM
15 | Cc1ccc(F)c2cc(C(=O)NC3CCCC(N4CCN5C(=O)OCC5C4)C3)[nH]c12 (stereo not shown) [compound 865] | – | 30 nM | 100 nM
16 | Cc1ccc(F)c2cc(C(=O)NC3CCCC(N4CCN5C(=O)OCC5C4)C3)[nH]c12 (stereo not shown) [compound 1111] | – | 20 nM | 70 nM
17 | Cc1ccc(F)c2cc(C(=O)N[C@@H]3CCC[C@H](N4CCn5c(n[nH]c5=O)C4)C3)[nH]c12 [compound 1058] | 600 nM | 40 nM | –
18 | CC(=O)N1CCC([C@H]2CCC[C@@H](NC(=O)c3cc4c(F)ccc(C)c4[nH]3)C2)CC1 [compound 1007] | 20 nM | 6 nM | –
19 | Cc1ccc(F)c2cc(C(=O)N[C@@H]3CCC[C@@H](N4CCN5C(=O)N(C)C[C@@H]5C4)C3)[nH]c12 [compound 1127] | 1300 nM | 400 nM | –
20 | Cc1ccc(F)c2cc(C(=O)Nc3cccc(CC4CCCN(C)C4)c3)[nH]c12 (stereo not shown) [compound 352] | > 2000 nM | 100 nM | –
21 | Cc1ccc(F)c2cc(C(=O)Nc3cccc(N4CCN(C(=O)CN(C)C)CC4)c3)[nH]c12 [compound 208] | – | 60 nM | 400 nM
22 | Cc1cccnc1C(CCC(=O)N(C)C)NC(=O)c1cc2cccc(C)c2[nH]1 (stereo not shown) [compound 446] | 5400 nM | 6300 nM | –
23 | CC(=O)N1CCN(C2CCC(NC(=O)c3cc4c(F)ccc(C)c4[nH]3)CC2)CC1 (stereo not shown) [compound 383] | – | > 10000 nM | > 2000 nM
24 | Cc1ccc(F)c2cc(C(=O)Nc3cccc(N4CCN(C5CCOCC5)CC4)c3)[nH]c12 [compound 207] | – | 100 nM | 400 nM
25 | Cc1cccc2cc(C(=O)Nc3cccc(N4CCN(S(=O)(=O)CCN)CC4)c3)[nH]c12 [compound 449] | 5500 nM | 200 nM | –
26 | Cc1ccc(F)c2cc(C(=O)Nc3cccc(C4CCN(C)CC4)c3)[nH]c12 [compound 168] | 300 nM | 20 nM | –
27 | Cc1ccc(F)c2cc(C(=O)N[C@@H]3CCC[C@@H](N4CCC(N(C)C(=O)CO)C4)C3)[nH]c12 (stereo partly shown) [compound 935] | > 2000 nM | 1900 nM | –
28 | CC(=O)N(CCO)C1CCN([C@@H]2CCC[C@@H](NC(=O)c3cc4c(F)ccc(C)c4[nH]3)C2)C1 (stereo partly shown) [compound 873] | > 2000 nM | 1100 nM | –
29 | Cc1ccc(F)c2cc(C(=O)Nc3cccc(N4CCCS4(=O)=O)c3)[nH]c12 [compound 125] | 300 nM | 80 nM | –
